From patent US20210222225A1, “Medium for Disk Diffusion Method to Evaluate Antibiotic Sensitivity” (priority 2018, published 2021)

Tests used:
[1] = system: Escherichia coli ATCC25922 strain; experiment: Colistin disk diffusion on modified Mueller-Hinton agar, ECO; format: cell-based; details: protamine 100 μg/ml
Description: (§1) To each MHA thus modified was added protamine (Sigma-Aldrich, St Louis, Mo., USA) at a concentration of 100 μg/ml, and solidification was performed. Then, on a surface of the medium was evenly inoculated each of colistin-susceptible (S) or -resistant (R) Acinetobacter calcoaceticus-baumannii complex (ACB) strain, Pseudomonas aeruginosa ATCC27853 strain, Escherichia coli ATCC25922 strain, and mcr-1-harboring Enterobacter aerogenes strain, and a colistin disk was placed thereon. Subsequently, a diameter of a growth inhibition zone (colistin inhibition zone), which had been formed clear by diffusion of colistin to the agar around the colistin disk, was measured.

[2] = system: colistin-susceptible strains; experiment: Colistin disk diffusion, colistin-susceptible strains as a group (average, differences); format: cell-based; details: for Average, diameter (mm) of colistin inhibition zone, colistin-susceptible strains / Difference (S vs ACB-R), diameter (mm) of colistin inhibition zone / Difference (S vs mcr-1), diameter (mm) of colistin inhibition zone: protamine 100 μg/ml
Description: as §1
(§2) As in Example 1, a concentration of agar particles (BD Diagnostic, Sparks, Md., USA) in Mueller-Hinton broth medium (BD Diagnostic) was adjusted to 5.1 g/L, which is 30% of 17 g/L, and protamine (Sigma-Aldrich, St Louis, Mo., USA) was added thereto at a concentration of 150 μg/ml or 100 μg/ml. Then, solidification was performed. To compare effects depending on concentrations of agar and protamine, Muller-Hinton agar medium (BD Diagnostic) containing agar at a concentration of 17 g/L and medium obtained by adding, to the Muller-Hinton agar medium, protamine at a concentration of 100 μg/ml were prepared as controls. On a surface of each medium thus prepared was evenly inoculated each of colistin-susceptible (S) or -resistant (R) Acinetobacter calcoaceticus-baumannii complex (ACB) strain, Pseudomonas aeruginosa ATCC27853 strain, and mcr-1-harboring Enterobacter aerogenes strain, and a colistin disk was placed thereon. Then, it was determined whether each strain was grown, and a diameter of a growth inhibition zone, which had been formed clear around the disk, was measured. The results are illustrated in FIG. 1.
The following four bacterial strains were used to determine conditions for agar: colistin-susceptible (S) or -resistant (R) Acinetobacter calcoaceticus-baumannii complex (ACB) strain (N=2), Pseudomonas aeruginosa ATCC27853 strain, and mcr-1-harboring Enterobacter aerogenes strain. A concentration of agar particles (BD Diagnostic, Sparks, Md., USA) in Mueller-Hinton broth medium (BD Diagnostic) was adjusted to 17 g/L or 5.1 g/L that is 30% of 17 g/L. To each modified MHA was added protamine (Sigma-Aldrich, St Louis, Mo., USA) at a concentration of 100 μg/ml.
(§3) On a surface of each medium thus prepared was evenly inoculated each of colistin-susceptible (S) or -resistant (R) Acinetobacter calcoaceticus-baumannii complex (ACB) strain, Pseudomonas aeruginosa ATCC27853 strain, and mcr-1-harboring Enterobacter aerogenes strain, and a colistin disk was placed thereon. Then, it was determined whether each strain was grown, and a diameter of a colistin inhibition zone, which had been formed clear around the disk, was measured. The results are illustrated in FIGS. 2A and 2B. Pictures of an inhibition zone around the disk were taken for each strain, and the results are illustrated in FIGS. 3A, 3B, 4A, 4B, 5A, 5B, 6A and 6B.

[3] = system: colistin-resistant strains; experiment: Colistin disk diffusion, colistin-resistant strains as a group; format: cell-based
Description: as §2, with “On a surface of each medium thus prepared was evenly inoculated each of colistin-susceptible (S) or -resistant (R) Acinetobacter calcoaceticus-baumannii complex (ACB) strain, Pseudomonas aeruginosa ATCC27853 strain, and mcr-1-harboring Enterobacter aerogenes strain, and a colistin disk was placed thereon.” left out, “The results are illustrated in FIG. 1.” left out
as §3, with “The results are illustrated in FIGS. 2A and 2B. Pictures of an inhibition zone around the disk were taken for each strain, and the results are illustrated in FIGS. 3A, 3B, 4A, 4B, 5A, 5B, 6A and 6B.” left out

[4] = system: ABA A14_S; experiment: Colistin disk diffusion, guanidine hydrochloride medium, A14_S; format: cell-based, Acinetobacter baumannii; details: 30% agar
Description: (§4) A concentration of agar particles (BD Diagnostic, Sparks, Md., USA) in Mueller-Hinton broth medium (BD Diagnostic) was adjusted to 5.1 g/L, which is 30% of 17 g/L, and guanidine hydrochloride was added to a concentration of 500 μg/ml, 50 μg/ml, or 5 μg/ml. Then, solidification was performed. On a surface of each medium thus prepared was evenly inoculated each of colistin-susceptible (S) or -resistant (R) Acinetobacter baumannii (ABA) strain, colistin-susceptible (S) or -resistant (R) Klebsiella pnemoniae (KPN) strain, and colistin-susceptible (S) or -resistant (R) Pseudomonas aeruginosa (PAE) strain, and a colistin disk was placed thereon. Then, pictures of a growth inhibition zone, which had been formed clear, around the disk were taken for each strain, and the results are illustrated in FIGS. 8 to 10.

[5] = system: KPN K3007_S; experiment: Colistin disk diffusion, guanidine hydrochloride medium, K3007_S; format: cell-based, Klebsiella pnemoniae; details: 30% agar
Description: as §4

[6] = system: KPN K3070_S; experiment: Colistin disk diffusion, guanidine hydrochloride medium, K3070_S; format: cell-based, Klebsiella pnemoniae; details: 30% agar
Description: as §4

[7] = system: KPN K4056_R; experiment: Colistin disk diffusion, guanidine hydrochloride medium, K4056_R; format: cell-based, Klebsiella pnemoniae; details: 30% agar
Description: as §4

[8] = system: PAE P1401_S; experiment: Colistin disk diffusion, guanidine hydrochloride medium, P1401_S; format: cell-based, Pseudomonas aeruginosa; details: 30% agar
Description: as §4

[9] = agar 5.1 g/L (30%) compared with 17 g/L, FIG. 1
[10] = agar 5.1 g/L and protamine 100 μg/ml compared with agar 17 g/L, FIGS. 2A to 6B
[11] = guanidine hydrochloride 5 μg/ml
[12] = guanidine hydrochloride 50 μg/ml
[13] = guanidine hydrochloride 500 μg/ml

In the case of colistin, the “Diameter (mm) of colistin inhibition zone” value ([1]; 30% agar) is reported as 16 mm, the “Diameter (mm) of colistin inhibition zone” value ([1]; 40% agar) is reported as 14 mm and the “Diameter (mm) of colistin inhibition zone” value ([1]; 50% agar) is reported as 14 mm. For the same substance, the “Diameter (mm) of colistin inhibition zone” value ([1]; 60% agar) was 14 mm, the “Diameter (mm) of colistin inhibition zone” value ([1]; 70% agar) was 14 mm and the “Diameter (mm) of colistin inhibition zone” value ([1]; 80% agar) was 14 mm. The “Diameter (mm) of colistin inhibition zone” value ([1]; 90% agar) was 13 mm, the “Diameter (mm) of colistin inhibition zone” value ([1]; 100% agar) was 13 mm and the “Average, diameter (mm) of colistin inhibition zone, colistin-susceptible strains” value ([2]; 30% agar) was 16 mm. The “Difference (S vs ACB-R), diameter (mm) of colistin inhibition zone” value ([2]; 30% agar) was 5 mm, the “Difference (S vs mcr-1), diameter (mm) of colistin inhibition zone” value ([2]; 30% agar) was 5 mm and the “Average, diameter (mm) of colistin inhibition zone, colistin-susceptible strains” value ([2]; 40% agar) was 15 mm. The “Difference (S vs ACB-R), diameter (mm) of colistin inhibition zone” value ([2]; 40% agar) was 4 mm, the “Difference (S vs mcr-1), diameter (mm) of colistin inhibition zone” value ([2]; 40% agar) was 5 mm and the “Average, diameter (mm) of colistin inhibition zone, colistin-susceptible strains” value ([2]; 50% agar) was 14 mm. For the same substance, the “Difference (S vs ACB-R), diameter (mm) of colistin inhibition zone” value ([2]; 50% agar) was 4 mm, the “Difference (S vs mcr-1), diameter (mm) of colistin inhibition zone” value ([2]; 50% agar) was 3 mm and the “Average, diameter (mm) of colistin inhibition zone, colistin-susceptible strains” value ([2]; 60% agar) was 14 mm. For the same substance, the “Difference (S vs ACB-R), diameter (mm) of colistin inhibition zone” value ([2]; 60% agar) was 1 mm, the “Difference (S vs mcr-1), diameter (mm) of colistin inhibition zone” value ([2]; 60% agar) was 4 mm and the “Average, diameter (mm) of colistin inhibition zone, colistin-susceptible strains” value ([2]; 70% agar) was 14 mm. For the same substance, the “Difference (S vs ACB-R), diameter (mm) of colistin inhibition zone” value ([2]; 70% agar) was 3 mm, the “Difference (S vs mcr-1), diameter (mm) of colistin inhibition zone” value ([2]; 70% agar) was 4 mm and the “Average, diameter (mm) of colistin inhibition zone, colistin-susceptible strains” value ([2]; 80% agar) was 13 mm. For the same substance, the “Difference (S vs ACB-R), diameter (mm) of colistin inhibition zone” value ([2]; 80% agar) was 1 mm, the “Difference (S vs mcr-1), diameter (mm) of colistin inhibition zone” value ([2]; 80% agar) was 4 mm and the “Average, diameter (mm) of colistin inhibition zone, colistin-susceptible strains” value ([2]; 90% agar) was 13 mm. The “Difference (S vs ACB-R), diameter (mm) of colistin inhibition zone” value ([2]; 90% agar) was 1 mm, the “Difference (S vs mcr-1), diameter (mm) of colistin inhibition zone” value ([2]; 90% agar) was 3 mm and the “Average, diameter (mm) of colistin inhibition zone, colistin-susceptible strains” value ([2]; 100% agar) was 13 mm. The “Difference (S vs ACB-R), diameter (mm) of colistin inhibition zone” value ([2]; 100% agar) was 2 mm, the “Difference (S vs mcr-1), diameter (mm) of colistin inhibition zone” value ([2]; 100% agar) was 3 mm and the “size of a growth inhibition zone in the colistin-susceptible strains” value [2, 9] was “increased”. The “diameter of the growth inhibition zone in the colistin-susceptible strains” value [2, 10] was “remarkably increased”, the “size of a growth inhibition zone in the colistin-resistant strains” value [3, 9] was “maintained” and the “size of the growth inhibition zone in the colistin-resistant strains” value [3, 10] was “no changes”. For the same substance, the “Disk diffusion (mm)” value [4, 11] was 15 mm, the “Disk diffusion (mm)” value [4, 12] was 15 mm and the “Disk diffusion (mm)” value [4, 13] was 15 mm. The “Disk diffusion (mm)” value [5, 11] was 17 mm, the “Disk diffusion (mm)” value [5, 12] was 16 mm and the “Disk diffusion (mm)” value [5, 13] was 16 mm. The “Disk diffusion (mm)” value [6, 11] was 17 mm, the “Disk diffusion (mm)” value [6, 12] was 16 mm and the “Disk diffusion (mm)” value [6, 13] was 17 mm. The “Disk diffusion (mm)” value [7, 11] was 12 mm, the “Disk diffusion (mm)” value [7, 12] was 12 mm and the “Disk diffusion (mm)” value [7, 13] was 10 mm. The “Disk diffusion (mm)” value [8, 11] was 16 mm, the “Disk diffusion (mm)” value [8, 12] was 15 mm and the “Disk diffusion (mm)” value [8, 13] was 16 mm.
